Four compounds from patent US11685726B2, “Pharmaceutical compositions of 6-(2-(2H-tetrazol-5-yl)ethyl)-6-fluorodecahydroisoquinoline-3-carboxylic acid and ester derivatives thereof” (Sea Pharmaceuticals LLC, priority 2020, dated 2023) can be followed below.

Assay [1] concerns 6 Hz psychomotor seizure model in mice. The experiment in a line: 6 Hz psychomotor seizure model in mice. Type of assay: in vivo, mouse. As to conditions: DMC. The text has this: Adult male Carworth Farms (CF-1) mice (25-35 g) or young male Sprague-Dawley (SD) rats (100-150 g) were obtained from Charles River Laboratories Inc (Wilmington Mass. USA). CF1 mice were typically used for the 6 Hz psychomotor seizure model (6 Hz model described in the section below) but could also be used for the Maximal electroshock seizure (MES) model if performed in mice (Maximal electroshock seizure model described in the section below). SD rats were typically used for MES model but could also be used for 6 Hz psychomotor model if performed in rats. Animals were allowed free access to food and water, except during testing periods. After delivery from supplier lab to the in vivo pharmacology testing lab, animals were allowed sufficient time to acclimate to housing conditions prior to testing. Animals were housed in plastic cages in rooms with controlled humidity, ventilation, and lighting (12 hours lights on and 12 hours darkness). The animals were housed and fed in a manner consistent with the recommendations in the “Guide for Care and Use of Laboratory Animals” (National Research Council), and in accordance with guidelines set by an Institutional Animal Care and Use Committee (IACUC). Animal experiments were conducted in a manner consistent with Animal Research: Reporting of In Vivo Experiments (ARRIVE) guidelines (UK) and were approved by an IACUC. Test compounds or respective vehicle (placebo) were administered using an optimal fluid volume-to-body fluid ratio. Solutions or suspensions of test compounds, reference compounds or vehicles were administered to mice or rats in a volume of 0.01 mL/g body weight (mice) or 0.004 mL/g body weight (rats) by subcutaneous (s.c.) injection, intraperitoneal (i.p.) injection or by oral gavage (p.o.) unless otherwise indicated. Reference drug Levetiracetam or vehicle was administered by intraperitoneal (i.p.) injection.
Mice are given a topical anesthetic on the cornea of each eye prior to placement of corneal electrodes. 6 Hz psychomotor seizures were induced in mice (usually 8 animals per group) using electrical stimulation via corneal electrodes (6 Hz, 0.2 millisecond rectangular pulse, 3 second duration at 22 mA using a Grass 48 stimulator instrument as described in Barton M E et al 2001. Epilepsy Res 47:217-227). Prior to placement of corneal electrodes for electrical stimulation 0.5% tetracaine in saline (Sigma) drops were applied to each eye. Seizures and behaviors that arise from the electrical stimulus in the 6 Hz model include a minor clonic seizure phase followed by stereotyped automatistic behaviors including stun, forelimb clonus, twitching of the vibrissae and Straub-tail. […] Animals not presenting any of these behaviors were considered “protected” from seizures. This serves as a screen for in vivo pharmacological activity of test articles or reference anti-epilepsy drugs and defines anti-seizure activity as shown in several publications [Barton M E et al. 2001. Epilepsy Res. 47:217-227; Barton M E et al. 2003 Epilepsy Res. 56:17-26; Brown W C et al. 1953. J Pharmacol Exp Ther 107:273-283. Metcalf C S et al. 2017a. Epilepsia 58:484-493.; Metcalf C S et al. 2017c. Epilepsia 58:239-246.
Unless otherwise indicated pretreatment times of mice or rats were typically 0.5 hours for respective vehicle, Compounds 1, 3, 4, 6 or other compounds administered by subcutaneous or intraperitoneal route (unless other times indicated). A pretreatment time of 1 hour was used for Compounds 3, 4, 6 or other compounds administered by oral route unless other times indicated. Test compounds or respective vehicles were tested in some cases at other pretreatment times as indicated. A median effective dose (ED50) and 95% confidence interval (CI) were calculated using a Prism (Graphpad software). […]

Another assay relates to NMDA receptor. The experiment in a line: Whole cell patch-clamp recording of NMDA induced currents in pyramidal neurons of rat brain prefrontal cortex slices. Type of assay: cell-based. As to conditions: 30 μM; rat brain slice PFC pyramidal neurons; n=4. As to the method: (§1) Additionally biological activity of compounds as antagonists of AMPA receptors or NMDA receptors (also called ionotropic glutamate-gated ion channels) were conducted using ex vivo functional electrophysiological assays of pyramidal neurons in slices of rat brain prefrontal cortex. Effects of test compounds cf. reference compounds were studied by whole cell patch-clamp electrophysiology recordings of s-AMPA-induced currents or NMDA-induced currents, respectively, using rat brain slice prefrontal cortex (layer V) pyramidal neurons.
Male Sprague Dawley rats were supplied by Charles River Laboratories (Wilmington, Mass. USA) and were housed 4 per cage within a temperature (20.5-23.5° C.) and humidity (30-80%) controlled environment on a 12 hour light/dark cycle with access to food (Teklad Global Soy Protein, Cat. No. T.2920X10, Envigo, Indianapolis, Ind., USA) and water ad libitum. […]
(§2) All test compound experiments were carried out in the voltage-clamp recording configuration of the whole cell patch-clamp technique and all recordings performed at a holding potential of −60 mV. Recordings were monitored on a Dell personal computer (PC) running Axon pClamp software (Molecular Devices, Sunnyvale, Calif., USA) and digitized at 10 kHz. […]
(In general: Patch clamp records ionic current or voltage across a cell membrane.)

Another assay concerns AMPA receptor. The experiment in a line: Whole cell patch-clamp recording of s-AMPA induced currents in pyramidal neurons of rat brain prefrontal cortex slices. As to conditions: rat brain slice PFC pyramidal neurons; n=4 to 5 experiments per concentration; read-out: IC50 of inhibition of peak amplitude responses to 20 μM s-AMPA. Type of assay: cell-based. How it is done: as §1
Male Sprague Dawley rats were supplied by Charles River Laboratories (Wilmington, Mass. USA) and were housed 4 per cage within a temperature (20.5-23.5° C.) and humidity (30-80%) controlled environment on a 12 hour light/dark cycle with access to food (Teklad Global Soy Protein, Cat. No. T.2920X10, Envigo, Indianapolis, Ind., USA) and water ad libitum. At 4-6 weeks of age rats were terminally anaesthetized using isofluorane [(1-chloro-2,2,2-trifluoroethyl difluoromethyl ether) supplied by Baxter Healthcare Corp, Deerfield, Ill., USA], and decapitated. The brain was removed and 300 μm thick coronal prefrontal cortex (PFC) or sagittal hippocampal slices were sectioned using a Vibratome microtome. After brain removal, and throughout slicing, the tissue was submerged in ice cold […] cerebrospinal fluid (aCSF). Once slices were cut, they were transferred to a beaker containing aCSF and left at room temperature for a minimum of 1 hour before commencing electrophysiological recordings. After this period, individual slices were transferred to a recording chamber continuously perfused with aCSF at a rate of 4-6 mL/min before commencing experiment protocols. aCSF composition (in mM): NaCl, 127; KCl, 1.9; KH2PO4, 1.2; CaCl2), 2.4; MgCl2, 1.3; NaHCO3, 26; D-glucose, 10; in water equilibrated with 95% Oxygen gas-5% CO2 gas (reagent suppliers listed below). Experiments investigating NMDA currents had aCSF supplemented with 10 μM glycine (reagents suppliers listed below). All experiments were conducted following protocols with the approval of an Institutional Animal Care and Use Committee (IACUC).
Whole cell patch-clamp recordings were performed from Layer V prefrontal cortex pyramidal neurons at room temperature using the ‘visualized’ version of the patch-clamp technique. […]
as §2

As to `CCOC(=O)[C@@H]1C[C@H]2C[C@@](F)(CCc3nnn[nH]3)CC[C@H]2CN1` [Compound 3, ethyl (3S,4aS,6S,8aR)-6-fluoro-6-[2-(1H-1,2,3,4-tetrazol-5-yl)ethyl]-decahydroisoquinoline-3-carboxylate], the “6 Hz Test Results (# mice protected from seizure/# mice tested)” value is 5/8 in assay [1] (13 mg/kg p.o., 1 hour) and 8/8 in assay [1] (13 mg/kg s.c., 0.5 hours). On the same counts, the results for `CCC(CC)COC(=O)[C@@H]1C[C@H]2C[C@@](F)(CCc3nnn[nH]3)CC[C@H]2CN1` [Compound 4, 2-ethylbutyl (3S,4aS,6S,8aR)-6-fluoro-6-[2-(1H-1,2,3,4-tetrazol-5-yl)ethyl]-decahydroisoquinoline-3-carboxylate] are 6/7 and 8/8. As to `O=C(OC1CCCCC1)[C@@H]1C[C@H]2C[C@@](F)(CCc3nn[nH]n3)CC[C@H]2CN1` [Compound 6, cyclohexyl (3S,4aS,6S,8aR)-6-fluoro-6-[2-(1H-1,2,3,4-tetrazol-5-yl)ethyl]-decahydroisoquinoline-3-carboxylate], in assay [1] (13 mg/kg p.o., 1 hour), the “6 Hz Test Results (# mice protected from seizure/# mice tested)” value is reported as 8/8.

For the compound `O=C(O)[C@@H]1C[C@H]2C[C@@H](CCc3nn[nH]n3)CC[C@H]2CN1` [Tezampanel, reference compound], in the assay with NMDA receptor, the “inhibition of peak amplitude responses to 50 μM NMDA induced currents” value is reported as 40%+/−2%. Moreover, in the assay with AMPA receptor, the IC50 (usually the concentration needed to halve the response being measured) stood at 481 nM.
